Measured values as given in ChEMBL document CHEMBL4049382, “4-Hydroxyphenylpyruvate Dioxygenase and Its Inhibition in Plants and Animals: Small Molecules as Herbicides and Agents for the Treatment of Human Inherited Diseases” (J Med Chem, 2017).

Legend:
[1] = molecular target: T1, 4-hydroxyphenylpyruvate dioxygenase (Arabidopsis thaliana, UniProt P93836); test: Inhibition of Arabidopsis thaliana HPPD expressed in Escherichia coli JM105 using HPPA as substrate after preincubated for 15 min followed by substrate addition by HPLC analysis
T1 sequence (P93836 whole entry): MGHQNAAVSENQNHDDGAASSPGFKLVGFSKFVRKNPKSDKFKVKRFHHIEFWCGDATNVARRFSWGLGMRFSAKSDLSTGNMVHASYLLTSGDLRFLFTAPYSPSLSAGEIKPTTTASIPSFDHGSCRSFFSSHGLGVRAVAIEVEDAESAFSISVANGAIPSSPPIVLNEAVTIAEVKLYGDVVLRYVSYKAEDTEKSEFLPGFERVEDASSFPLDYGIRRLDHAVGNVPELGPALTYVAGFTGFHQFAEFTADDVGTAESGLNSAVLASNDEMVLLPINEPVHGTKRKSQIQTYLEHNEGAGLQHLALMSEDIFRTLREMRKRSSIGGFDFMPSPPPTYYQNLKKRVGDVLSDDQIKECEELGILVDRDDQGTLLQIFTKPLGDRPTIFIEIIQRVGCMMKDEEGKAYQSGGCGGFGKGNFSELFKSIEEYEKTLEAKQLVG

[2] = molecular target: T2, 4-hydroxyphenylpyruvate dioxygenase (Arabidopsis thaliana) (UniProt P93836); test: Inhibition of Arabidopsis thaliana HPPD
T2 sequence (whole entry): T1 sequence (P93836 whole entry)

[3] = molecular target: T3, 4-hydroxyphenylpyruvate dioxygenase (Sus scrofa, UniProt Q02110); test: Inhibition of pig liver HPPD using 4-hydroxyphenylpyruvic acid as substrate after 15 mins by spectrophotometric analysis
[4] = molecular target: T1, 4-hydroxyphenylpyruvate dioxygenase; test: Inhibition of Arabidopsis thaliana HPPD expressed in Escherichia coli JM105 using 4-HPP as substrate preincubated for 15 mins followed by substrate addition measured after 15 mins by HPLC analysis
[5] = molecular target: T1, 4-hydroxyphenylpyruvate dioxygenase; test: Inhibition of Arabidopsis thaliana HPPD expressed in Escherichia coli BL21(DE3) using HPPA as substrate after 10 mins by UV-Vis spectrometric analysis
Plasmodium falciparum [6] = test: Antiparasitic activity against chloroquine-sensitive Plasmodium falciparum; assay type: functional
Plasmodium falciparum [7] = test: Antiparasitic activity against chloroquine-resistant Plasmodium falciparum; assay type: functional
[8] = molecular target: T4, 4-hydroxyphenylpyruvate dioxygenase (Daucus carota, UniProt O23920); test: Inhibition of carrot HPPD expressed in Escherichia coli JM105 using HPPA as substrate
T4 sequence (O23920 whole entry): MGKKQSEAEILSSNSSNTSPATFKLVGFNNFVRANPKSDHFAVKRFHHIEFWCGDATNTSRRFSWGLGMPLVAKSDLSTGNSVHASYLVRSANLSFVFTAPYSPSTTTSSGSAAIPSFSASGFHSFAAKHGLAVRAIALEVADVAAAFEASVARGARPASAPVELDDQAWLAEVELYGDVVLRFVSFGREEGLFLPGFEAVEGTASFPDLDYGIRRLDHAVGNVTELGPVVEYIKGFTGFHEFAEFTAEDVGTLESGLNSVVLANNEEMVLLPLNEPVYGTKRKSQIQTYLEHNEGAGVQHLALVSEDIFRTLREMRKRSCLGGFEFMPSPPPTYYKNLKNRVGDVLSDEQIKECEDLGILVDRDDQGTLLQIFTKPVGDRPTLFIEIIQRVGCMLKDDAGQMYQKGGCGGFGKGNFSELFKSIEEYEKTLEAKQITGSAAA

[9] = molecular target: T5, 4-hydroxyphenylpyruvate dioxygenase (Daucus carota) (UniProt O23920); test: Inhibition of carrot HPPD expressed in Escherichia coli JM105 assessed as dissociation half life using HPPA as substrate
T5 sequence (whole entry): T4 sequence (O23920 whole entry)

Fibroblast = test: Cytotoxicity against human Fibroblast assessed as reduction in cell viability after 24 to 144 hrs by MTT assay
[10] = molecular target: T1, 4-hydroxyphenylpyruvate dioxygenase; test: Inhibition of Arabidopsis thaliana HPPD expressed in Escherichia coli JM109 using HPPA as substrate after 10 mins
Rattus norvegicus [11] = test: In vivo inhibition of HPPD activity in rat assessed as micoL of O2 consumed in liver cytosol at 0.1 to 5 mg/kg/day measured after 90 days (reference value: 91%); assay type: functional
Rattus norvegicus [12] = test: In vivo inhibition of HGD activity in rat assessed as micoL of O2 consumed in liver cytosol at 5 to 100 mg/kg/day measured after 90 days relative to control; assay type: functional
Rattus norvegicus [13] = test: In vivo inhibition of TAT activity in rat assessed as 4-hydroxyphenylpyruvate formed in liver cytosol at 50 to 100 mg/kg/day measured after 90 days relative to control; assay type: functional
Homo sapiens [14] = organism: Homo sapiens; test: Inhibition of TAT in human Fibroblasts assessed as reduction in tyrosine level at 0.1 uM after 72 hrs by LC-MS/MS analysis relative to control
[15] = molecular target: 4-hydroxyphenylpyruvate dioxygenase (Rattus norvegicus) (UniProt P32755); settings: Wistar, 50 nM
Description: Inhibition of Wistar rat liver HPPD using 4-Hydroxyphenylpyruvate as substrate assessed as reduction in oxygen consumption at 50 nM preincubated for 3 mins followed by substrate addition measured after 30 secs

Homo sapiens [16] = test: Effect on tyrosine level in plasma in human at 1 mg/kg, po up to 120 hrs (reference value: 0.076 mM); settings: in vivo
[17] = Half life in human plasma at 1 mg/kg
Homo sapiens [18] = test: In vivo inhibition of HPPD in human assessed dissociation half life for enzyme-compound complex in plasma; assay type: functional, organism-based
Rattus norvegicus [19] = organism: Rattus norvegicus
Description: In vivo inhibition of HPPD in rat assessed dissociation half life for enzyme-compound complex in plasma

Homo sapiens [20] = test: Effect on tyrosine level in plasma in human at 1 mg/kg, po under uncontrolled diet (reference value: 0.076 mM); assay type: ADME, organism-based; settings: in vivo
[21] = In vitro half life of rat HPPD complex
Rattus norvegicus [22] = test: In vivo inhibition of Tyr hydroxylase in rat assessed as tyr concentration in plasma by colorimetric assay (reference value: 0.1 mM); assay type: functional
[23] = molecular target: T3, 4-hydroxyphenylpyruvate dioxygenase; test: Inhibition of pig liver HPPD using HPP as substrate after 15 mins
[24] = Half life in human plasma at 1 mg/kg administered as solution; assay type: ADME, organism-based
[25] = Half life in human plasma at 1 mg/kg administered as capsule; assay type: ADME, organism-based; settings: po
Homo sapiens [26] = organism: Homo sapiens; test: Inhibition of TAT in human Fibroblasts assessed as reduction in tyrosine level at 10 uM after 72 hrs by LC-MS/MS analysis relative to control
Homo sapiens [27] = test: In vivo inhibition of HPPD in human assessed as blood tyrosine levels at 4 mg/kg measured up to 120 hrs; assay type: functional

T3 sequence (Q02110 whole entry): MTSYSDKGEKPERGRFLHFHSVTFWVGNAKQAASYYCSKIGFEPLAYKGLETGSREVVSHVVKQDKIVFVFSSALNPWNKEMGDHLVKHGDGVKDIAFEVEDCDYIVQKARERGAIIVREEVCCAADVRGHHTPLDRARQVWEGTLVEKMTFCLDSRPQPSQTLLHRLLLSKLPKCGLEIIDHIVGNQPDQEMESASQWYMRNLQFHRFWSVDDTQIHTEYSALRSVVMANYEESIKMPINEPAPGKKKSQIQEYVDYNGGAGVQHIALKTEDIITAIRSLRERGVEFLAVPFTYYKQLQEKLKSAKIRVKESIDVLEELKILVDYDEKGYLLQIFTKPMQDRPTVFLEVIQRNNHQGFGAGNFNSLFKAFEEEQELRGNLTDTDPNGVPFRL
Sequence of 4-hydroxyphenylpyruvate dioxygenase (Rattus norvegicus) (P32755 whole entry): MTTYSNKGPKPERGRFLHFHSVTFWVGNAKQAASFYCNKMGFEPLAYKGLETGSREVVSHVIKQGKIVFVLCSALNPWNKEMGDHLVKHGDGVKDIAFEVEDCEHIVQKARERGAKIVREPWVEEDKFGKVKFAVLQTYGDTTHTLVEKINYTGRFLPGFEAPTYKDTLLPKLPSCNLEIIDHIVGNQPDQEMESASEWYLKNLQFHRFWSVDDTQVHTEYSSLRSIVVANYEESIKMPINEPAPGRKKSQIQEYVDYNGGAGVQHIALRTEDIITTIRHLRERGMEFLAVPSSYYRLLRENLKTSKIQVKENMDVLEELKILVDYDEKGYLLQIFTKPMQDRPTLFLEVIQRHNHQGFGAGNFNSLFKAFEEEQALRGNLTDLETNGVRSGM

O=C1C[C@@H](c2ccccc2)Oc2cc(O)cc(O)c21 [PINOCEMBRIN] gave an IC50 [1] of 73000 nM.
Work on Cc1c(C(=O)c2cn[nH]c2O)ccc(S(C)(=O)=O)c1C1=NOCC1 yielded an INH [2] of 600 nM.
Work on O=C1CCCC(OC(=O)C2CC2)=C1Br yielded an IC50 [3] of 28 nM.
In the case of CC(=O)C1=C(O)C=C2Oc3c(C(C)=O)c(O)c(C)c(O)c3[C@@]2(C)C1=O [(+)-USNIC ACID], the IC50 [1] is reported as 70 nM.
CCCCCCCCCC(=O)C1C(=O)C(C)(C)C(=O)C(C)(C)C1=O gave an IC50 [4] of 19 nM.
Work on CC1(C)C(=O)C(C(=O)CCc2ccccc2)C(=O)C(C)(C)C1=O yielded an IC50 [4] of 750 nM.
Molecule Cc1c(C(=O)c2cnn(C)c2O)ccc(S(C)(=O)=O)c1C1=NOCC1 has an INH [2] of 23 nM.
In the case of CCn1c(=O)n(-c2ccccc2C)c(=O)c2cc(C(=O)C3C(=O)CCCC3=O)ccc21, the Ki [5] is reported as 5 nM.
With Cc1nc2c(C)cccc2cc1C(=O)C1C(=O)CC(C)CC1=O (stereo unspecified) the Ki [5] was 7 to 9 nM.
Work on Cc1nc2c(C)cccc2cc1C(=O)C1C(=O)CCCC1=O yielded a Ki [5] of 7 to 9 nM.
Cc1c(O)c(C(=O)CCc2ccccc2)c2c(c1O)[C@@H]1C3=C(O[C@]1(C(C)C)O2)C(C)(C)C(=O)C(C)(C)C3=O gave an IC50 (Plasmodium falciparum [6]) of 400 nM and an IC50 (Plasmodium falciparum [7]) of 300 nM.
Molecule CS(=O)(=O)c1cc(C(F)(F)F)ccc1C(=O)C(C#N)C(=O)C1CC1 (stereo unspecified) has a Kd [8] of 6 nM and a T1/2 [9] of 2 h.
Work on O=C1CCCC(OC(=O)C2CC2)=C1Cl yielded an IC50 [3] of 15 nM.
Molecule Cc1cc(C2C(=O)C(C(=O)c3ccc(Cl)cc3)C(=O)CC2(C)C)on1 (stereo unspecified) has an Activity (Fibroblast) greater than 1 mM.
With COc1nc2c(C)cccc2cc1C(=O)C1C(=O)CC(C)CC1=O (stereo unspecified) the Ki [5] was 7 to 9 nM.
With CS(=O)(=O)c1ccc(C(=O)C2C(=O)CCCC2=O)c(Cl)c1COCC(F)(F)F [TEMBOTRIONE] the Ki [10] was 13 nM.
Work on Cc1cccc2cc(C(=O)C3C(=O)CC(C)CC3=O)c(C#N)nc12 (stereo unspecified) yielded a Ki [5] of 7 to 9 nM.
O=C1CCCC(=O)C1C(=O)COc1ccc([N+](=O)[O-])cc1 showed a Ki [10] of 31 to 37 nM.
With CS(=O)(=O)c1ccc(C(=O)C2C(=O)CCCC2=O)c(Cl)c1 [SULCOTRIONE] the “inhibition (INH)” value (Rattus norvegicus [11]) was 96%, the “inhibition (INH)” value (Rattus norvegicus [12]) was 29 - 46% and the “inhibition (INH)” value (Rattus norvegicus [13]) was 43 - 175%.
With CC(C)CC(=O)C1C(=O)C(C)(C)C(=O)C(C)(C)C1=O the IC50 [4] was 11800 nM.
Work on CC1(C)CC(=O)C(C(=O)c2ccc([N+](=O)[O-])cc2Cl)C(=O)C1 yielded an inhibition (Homo sapiens [14]) of 7% and an Activity (Fibroblast) greater than 1 mM.
COc1nc2c(C)cccc2cc1C(=O)C1C(=O)CCCC1=O showed a Ki [5] of 7 to 9 nM.
O=C1CCCC(=O)C1Cc1ccccc1[N+](=O)[O-] showed an IC50 [3] of 126000 nM.
O=C1CCCC(=O)C1C(=O)COc1ccccc1Cl showed a Ki [10] of 31 to 37 nM.
O=C1CCCC(=O)C1C(=O)c1ccc(C(F)(F)F)cc1[N+](=O)[O-] [NITISINONE] showed an inhibition [15] of 50%, an Activity (Homo sapiens [16]) of 1.1 mM and a half-life [17] of 53 h. The T1/2 (Homo sapiens [18]) was 53 h, the T1/2 (Rattus norvegicus [19]) was 63 h and the Activity (Homo sapiens [20]) was 0.136 mM. It also gave a half-life [21] of 63 h and an Activity (Rattus norvegicus [22]) greater than 2 mM.
In the case of O=C(O)C(O)(O)C(F)c1ccccc1 (stereo unspecified), the IC50 [23] is reported as 10000 nM.
Cc1cccc2cc(C(=O)C3C(=O)CCCC3=O)c(C#N)nc12 gave a Ki [5] of 7 to 9 nM.
For Cc1ccccc1OCC(=O)C1C(=O)CCCC1=O, the Ki [10] was 31 to 37 nM.
O=C1CCCC(=O)C1C(=O)COc1ccc(Cl)cc1 showed a Ki [10] of 31 to 37 nM.
For O=C1CCCCC1C(=O)c1ccccc1[N+](=O)[O-] (stereo unspecified), the IC50 [3] was 700 nM.
In the case of CS(=O)(=O)c1ccc(C(=O)C2C(=O)CCCC2=O)c([N+](=O)[O-])c1 [MESOTRIONE], the half-life [24] is reported as 1 h, the half-life [25] is reported as 1 h and the inhibition (Homo sapiens [26]) is reported as 14%. For the same molecule, the Activity (Homo sapiens [27]) was less than 0.5 mM.
